EC50 data for 7 compounds are collected here from patent US11541028B2, “Peptide pharmaceuticals for treatment of NASH and other disorders” (Mederis Diabetes LLC, priority 2018, dated 2023).

Numbered stars: 1 amine (or outer) side, 2 acyl side, 3 side chain; on linkers, the order of the positions; unused ones are H or OH. Bridge positions count the residues as written; N and C are the ends. Square brackets hold non-standard residues; d marks the D form. Side chains are listed from the residue outwards. Peptide text beside a SMILES is read from it. * marks the point of attachment. βGlcA(1-O-hexadecyl) = CCCCCCCCCCCCCCCCO[C@@H]1O[C@H](C(=O)*)[C@@H](O)[C@H](O)[C@H]1O; GlcA(1β-O-tetradecyl) = CCCCCCCCCCCCCCO[C@@H]1O[C@H](C(=O)*)[C@@H](O)[C@H](O)[C@H]1O; γGlu = O=C(O)[C@H](CCC(=O)[*:2])N[*:1]; εLys = N[C@@H](CCCCN[*:1])C(=O)[*:2]; Aib = CC(C)(N)C(=O)O

One test deals with T1, human GLP-1 receptor (Homo sapiens, UniProt P43220).
T1 construct: host or cells: CHO cells
T1 sequence (P43220 24-463): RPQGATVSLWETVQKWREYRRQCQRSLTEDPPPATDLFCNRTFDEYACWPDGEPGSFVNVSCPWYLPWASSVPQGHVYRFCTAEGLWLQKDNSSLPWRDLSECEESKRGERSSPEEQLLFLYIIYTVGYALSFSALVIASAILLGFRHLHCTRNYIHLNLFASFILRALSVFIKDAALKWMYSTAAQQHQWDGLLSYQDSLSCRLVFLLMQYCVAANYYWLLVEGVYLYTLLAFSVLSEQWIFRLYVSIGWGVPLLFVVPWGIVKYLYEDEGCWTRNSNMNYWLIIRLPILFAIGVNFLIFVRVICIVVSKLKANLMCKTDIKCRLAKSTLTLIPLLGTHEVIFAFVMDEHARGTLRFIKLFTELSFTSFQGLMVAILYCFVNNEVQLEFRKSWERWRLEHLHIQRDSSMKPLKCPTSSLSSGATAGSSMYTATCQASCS
Briefly: DiscoveRx LeadHunter cellular assay, cAMP stimulation, GLP-1 receptor in CHO cells. Type of test: cell-based. To be noted: human GLP-1 receptor in CHO cells (DiscoveRx); read-out: EC50 cAMP GLP-1 R.

The next test concerns the target T2, human glucagon receptor (Homo sapiens, UniProt P47871).
T2 construct: host or cells: CHO cells
The test is described as follows: DiscoveRx LeadHunter cellular assay, cAMP stimulation, glucagon receptor in CHO cells. Type of test: cell-based.

T2 sequence (P47871 26-477): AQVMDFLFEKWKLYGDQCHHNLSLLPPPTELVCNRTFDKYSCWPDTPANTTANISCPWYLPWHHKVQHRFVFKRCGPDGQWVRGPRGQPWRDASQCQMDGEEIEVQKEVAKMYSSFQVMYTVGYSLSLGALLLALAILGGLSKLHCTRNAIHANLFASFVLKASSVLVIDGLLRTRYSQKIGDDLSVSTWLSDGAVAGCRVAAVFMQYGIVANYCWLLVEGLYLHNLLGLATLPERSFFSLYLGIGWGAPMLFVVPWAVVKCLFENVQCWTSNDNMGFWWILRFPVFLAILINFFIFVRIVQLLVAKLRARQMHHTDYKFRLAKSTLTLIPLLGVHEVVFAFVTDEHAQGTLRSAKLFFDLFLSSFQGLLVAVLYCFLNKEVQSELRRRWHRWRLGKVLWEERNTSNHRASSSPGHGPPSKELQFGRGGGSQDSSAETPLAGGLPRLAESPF
Procedure for human GLP-1 receptor: (§1) A further series of cellular assays was carried out with standard cellular assays (DiscoveRx, LeadHunter assays) using readout of cAMP stimulation or arrestin activation. Compounds were weighed precisely in an amount of about 1 mg and shipped to DiscoveRx for dilution and assay.
Procedure for human glucagon receptor: as §1

With `CCCCCCCCCCCCCCCCO[C@@H]1O[C@H](C(=O)NCCCC[C@H](N)C(=O)NCCCC[C@H](NC(=O)[C@H](C)NC(=O)[C@H](C)NC(=O)[C@H](CCC(N)=O)NC(=O)[C@@H]2CCCCNC(=O)CC[C@H](NC(=O)[C@H](CO)NC(=O)[C@H](Cc3ccc(O)cc3)NC(=O)[C@H](CC(=O)O)NC(=O)[C@H](CO)NC(=O)[C@@H](NC(=O)[C@H](Cc3ccccc3)NC(=O)[C@@H](NC(=O)CNC(=O)[C@H](CCC(N)=O)NC(=O)C(C)(C)NC(=O)[C@@H](N)Cc3c[nH]cn3)[C@@H](C)O)[C@@H](C)O)C(=O)N[C@@H](Cc3ccc(O)cc3)C(=O)N[C@@H](CC(C)C)C(=O)N[C@@H](CC(=O)O)C(=O)N2)C(=O)N[C@@H](CCC(=O)O)C(=O)N[C@@H](Cc2ccccc2)C(=O)N[C@H](C(=O)N[C@@H](CCC(N)=O)C(=O)N[C@@H](Cc2c[nH]c3ccccc23)C(=O)N[C@@H](CC(C)C)C(=O)N[C@@H](CC(C)C)C(=O)N[C@@H](CCC(N)=O)C(=O)N[C@H](C(N)=O)[C@@H](C)O)[C@@H](C)CC)[C@@H](O)[C@H](O)[C@H]1O` [EU-A1785] (H-H[Aib]QGTFTSDYSEYLDKQAAK([εLys-βGlcA(1-O-hexadecyl)])EFIQWLLQT-NH2; lactam 12-16; N-terminus assumed), the EC50 turned out to be 239 pM on human GLP-1 receptor and 5140 pM at human glucagon receptor.

As to `CCCCCCCCCCCCCCO[C@@H]1O[C@H](C(=O)N[C@@H](CCC(=O)NCCCC[C@H](NC(=O)[C@H](C)NC(=O)[C@H](C)NC(=O)[C@H](CCC(N)=O)NC(=O)[C@@H]2CCCCNC(=O)CC[C@H](NC(=O)[C@H](CO)NC(=O)[C@H](Cc3ccc(O)cc3)NC(=O)[C@H](CC(=O)O)NC(=O)[C@H](CO)NC(=O)[C@@H](NC(=O)[C@H](Cc3ccccc3)NC(=O)[C@@H](NC(=O)CNC(=O)[C@H](CCC(N)=O)NC(=O)C(C)(C)NC(=O)[C@@H](N)Cc3c[nH]cn3)[C@@H](C)O)[C@@H](C)O)C(=O)N[C@@H](Cc3ccc(O)cc3)C(=O)N[C@@H](CC(C)C)C(=O)N[C@@H](CC(=O)O)C(=O)N2)C(=O)N[C@@H](CCC(=O)O)C(=O)N[C@@H](Cc2ccccc2)C(=O)N[C@H](C(=O)N[C@@H](CCC(N)=O)C(=O)N[C@@H](Cc2c[nH]c3ccccc23)C(=O)N[C@@H](CC(C)C)C(=O)N[C@@H](CC(C)C)C(=O)N[C@@H](CCC(N)=O)C(=O)N[C@H](C(N)=O)[C@@H](C)O)[C@@H](C)CC)C(=O)O)[C@@H](O)[C@H](O)[C@H]1O` [EU-A1787] (H-H[Aib]QGTFTSDYSEYLDKQAAK([γGlu-GlcA(1β-O-tetradecyl)])EFIQWLLQT-NH2; lactam 12-16; N-terminus assumed), the EC50 at human GLP-1 receptor is 246 pM; at human glucagon receptor, 10000 pM.

Turning to `CCCCCCCCCCCCCCCCO[C@@H]1O[C@H](C(=O)N[C@@H](CCC(=O)NCCCC[C@H](NC(=O)[C@H](C)NC(=O)[C@H](C)NC(=O)[C@H](CCC(N)=O)NC(=O)[C@@H]2CCCCNC(=O)CC[C@H](NC(=O)[C@H](CO)NC(=O)[C@H](Cc3ccc(O)cc3)NC(=O)[C@H](CC(=O)O)NC(=O)[C@H](CO)NC(=O)[C@@H](NC(=O)[C@H](Cc3ccccc3)NC(=O)[C@@H](NC(=O)CNC(=O)[C@H](CCC(N)=O)NC(=O)C(C)(C)NC(=O)[C@@H](N)Cc3c[nH]cn3)[C@@H](C)O)[C@@H](C)O)C(=O)N[C@@H](Cc3ccc(O)cc3)C(=O)N[C@@H](CC(C)C)C(=O)N[C@@H](CC(=O)O)C(=O)N2)C(=O)N[C@@H](CCC(=O)O)C(=O)N[C@@H](Cc2ccccc2)C(=O)N[C@H](C(=O)N[C@@H](CCC(N)=O)C(=O)N[C@@H](Cc2c[nH]c3ccccc23)C(=O)N[C@@H](CC(C)C)C(=O)N[C@@H](CC(C)C)C(=O)N[C@@H](CCC(N)=O)C(=O)N[C@H](C(N)=O)[C@@H](C)O)[C@@H](C)CC)C(=O)O)[C@@H](O)[C@H](O)[C@H]1O` [EU-A1788] (H-H[Aib]QGTFTSDYSEYLDKQAAK([γGlu-βGlcA(1-O-hexadecyl)])EFIQWLLQT-NH2; lactam 12-16; N-terminus assumed), the EC50 on human GLP-1 receptor amounted to 232 pM; on human glucagon receptor, 10000 pM.

Take `CCCCCCCCCCCCCCO[C@@H]1O[C@H](C(=O)NCCCC[C@@H]2NC(=O)[C@@H](NC(=O)[C@H](CC(=O)O)NC(=O)[C@H](CC(C)C)NC(=O)[C@H](Cc3ccc(O)cc3)NC(=O)[C@H](CCCCN)NC(=O)[C@H](CO)NC(=O)[C@H](Cc3ccc(O)cc3)NC(=O)[C@H](CC(=O)O)NC(=O)[C@H](CO)NC(=O)[C@@H](NC(=O)[C@H](Cc3ccccc3)NC(=O)[C@@H](NC(=O)CNC(=O)[C@H](CCC(N)=O)NC(=O)C(C)(C)NC(=O)[C@@H](N)Cc3c[nH]cn3)[C@@H](C)O)[C@@H](C)O)CCC(=O)NCCCC[C@@H](C(=O)N[C@@H](CCC(=O)O)C(=O)N[C@@H](Cc3ccccc3)C(=O)N[C@H](C(=O)N[C@@H](CCC(=O)O)C(=O)N[C@@H](Cc3c[nH]c4ccccc34)C(=O)N[C@@H](CC(C)C)C(=O)N[C@@H](CC(C)C)C(=O)N[C@@H](CCC(N)=O)C(=O)N[C@H](C(N)=O)[C@@H](C)O)[C@@H](C)CC)NC(=O)[C@H](C)NC(=O)[C@H](C)NC2=O)[C@@H](O)[C@H](O)[C@H]1O` [EU-A1841] (H-H[Aib]QGTFTSDYSKYLDEK(GlcA(1β-O-tetradecyl))AAKEFIEWLLQT-NH2; lactam 16-20; N-terminus assumed): the EC50 worked out at 316 pM on human GLP-1 receptor and 475 pM at human glucagon receptor.

For `CCCCCCCCCCCCCCCCO[C@@H]1O[C@H](C(=O)NCCCC[C@@H]2NC(=O)[C@@H](NC(=O)[C@H](CC(=O)O)NC(=O)[C@H](CC(C)C)NC(=O)[C@H](Cc3ccc(O)cc3)NC(=O)[C@H](CCCCN)NC(=O)[C@H](CO)NC(=O)[C@H](Cc3ccc(O)cc3)NC(=O)[C@H](CC(=O)O)NC(=O)[C@H](CO)NC(=O)[C@@H](NC(=O)[C@H](Cc3ccccc3)NC(=O)[C@@H](NC(=O)CNC(=O)[C@H](CCC(N)=O)NC(=O)C(C)(C)NC(=O)[C@@H](N)Cc3c[nH]cn3)[C@@H](C)O)[C@@H](C)O)CCC(=O)NCCCC[C@@H](C(=O)N[C@@H](CCC(=O)O)C(=O)N[C@@H](Cc3ccccc3)C(=O)N[C@H](C(=O)N[C@@H](CCC(=O)O)C(=O)N[C@@H](Cc3c[nH]c4ccccc34)C(=O)N[C@@H](CC(C)C)C(=O)N[C@@H](CC(C)C)C(=O)N[C@@H](CCC(N)=O)C(=O)N[C@H](C(N)=O)[C@@H](C)O)[C@@H](C)CC)NC(=O)[C@H](C)NC(=O)[C@H](C)NC2=O)[C@@H](O)[C@H](O)[C@H]1O` [EU-A1842] (H-H[Aib]QGTFTSDYSKYLDEK(βGlcA(1-O-hexadecyl))AAKEFIEWLLQT-NH2; lactam 16-20; N-terminus assumed), the EC50 was 1210 pM on human GLP-1 receptor and 2110 pM on human glucagon receptor.

With `CCCCCCCCCCCCCCO[C@@H]1O[C@H](C(=O)NCCCC[C@H](NC(=O)[C@H](C)NC(=O)[C@H](C)NC(=O)[C@H](CCC(N)=O)NC(=O)[C@H](CO)NC(=O)[C@H](CC(=O)O)NC(=O)[C@@H]2CCCCNC(=O)CC[C@H](NC(=O)[C@H](CC(=O)O)NC(=O)[C@H](CO)NC(=O)[C@@H](NC(=O)[C@H](Cc3ccccc3)NC(=O)[C@@H](NC(=O)CNC(=O)[C@H](CCC(N)=O)NC(=O)C(C)(C)NC(=O)[C@@H](N)Cc3c[nH]cn3)[C@@H](C)O)[C@@H](C)O)C(=O)N[C@@H](CO)C(=O)N[C@@H](CCCCN)C(=O)N[C@@H](Cc3ccc(O)cc3)C(=O)N2)C(=O)N[C@@H](CCC(=O)O)C(=O)N[C@@H](Cc2ccccc2)C(=O)N[C@H](C(=O)N[C@@H](CCC(=O)O)C(=O)N[C@@H](Cc2c[nH]c3ccccc23)C(=O)N[C@@H](CC(C)C)C(=O)N[C@@H](CC(C)C)C(=O)N[C@@H](CCC(N)=O)C(=O)N[C@H](C(N)=O)[C@@H](C)O)[C@@H](C)CC)[C@@H](O)[C@H](O)[C@H]1O` [EU-A1847] (H-H[Aib]QGTFTSDESKYKDSQAAK(GlcA(1β-O-tetradecyl))EFIEWLLQT-NH2; lactam 10-14; N-terminus assumed), the EC50 came out at 32 pM on human GLP-1 receptor and 1950 pM on human glucagon receptor.

In the case of `CCCCCCCCCCCCCCCCO[C@@H]1O[C@H](C(=O)NCCCC[C@H](NC(=O)[C@H](C)NC(=O)[C@H](C)NC(=O)[C@H](CCC(N)=O)NC(=O)[C@H](CO)NC(=O)[C@H](CC(=O)O)NC(=O)[C@@H]2CCCCNC(=O)CC[C@H](NC(=O)[C@H](CC(=O)O)NC(=O)[C@H](CO)NC(=O)[C@@H](NC(=O)[C@H](Cc3ccccc3)NC(=O)[C@@H](NC(=O)CNC(=O)[C@H](CCC(N)=O)NC(=O)C(C)(C)NC(=O)[C@@H](N)Cc3c[nH]cn3)[C@@H](C)O)[C@@H](C)O)C(=O)N[C@@H](CO)C(=O)N[C@@H](CCCCN)C(=O)N[C@@H](Cc3ccc(O)cc3)C(=O)N2)C(=O)N[C@@H](CCC(=O)O)C(=O)N[C@@H](Cc2ccccc2)C(=O)N[C@H](C(=O)N[C@@H](CCC(=O)O)C(=O)N[C@@H](Cc2c[nH]c3ccccc23)C(=O)N[C@@H](CC(C)C)C(=O)N[C@@H](CC(C)C)C(=O)N[C@@H](CCC(N)=O)C(=O)N[C@H](C(N)=O)[C@@H](C)O)[C@@H](C)CC)[C@@H](O)[C@H](O)[C@H]1O` [EU-A1848] (H-H[Aib]QGTFTSDESKYKDSQAAK(βGlcA(1-O-hexadecyl))EFIEWLLQT-NH2; lactam 10-14; N-terminus assumed), the EC50 at human GLP-1 receptor is 60 pM; at human glucagon receptor, 3060 pM.

One may read the EC50 as the concentration needed to bring the measured effect to its halfway point.
